We go through one molecule from article PMC5218480 (PLoS ONE, 2017).

The test deals with MV-4-11 cells. The test can be described thus: Gene expression microarray analysis (Affymetrix PrimeView) and GSEA. Conditions: MV-4-11 cells, 48 hours. Format: cell-based, human. Details: RFU PODN (11730768_x_at) / Fold change /veh PODN (11730768_x_at) / RFU LINC00158 (11744669_a_at) / Fold change /veh LINC00158 (11744669_a_at) / RFU DUSP10 (11751237_a_at) / Fold change /veh DUSP10 (11751237_a_at) / RFU ID3 (11757404_x_at) / Fold change /veh ID3 (11757404_x_at) / RFU PLEKHG5 (11737974_s_at) / Fold change /veh PLEKHG5 (11737974_s_at) / RFU LRRC4B (11730491_at) / Fold change /veh LRRC4B (11730491_at) / RFU GIMAP4 (11747438_a_at) / Fold change /veh GIMAP4 (11747438_a_at) / RFU KRT8 (11758183_x_at) / Fold change /veh KRT8 (11758183_x_at) / RFU CNN1 (11734310_a_at) / Fold change /veh CNN1 (11734310_a_at) / RFU VPS37D (11726825_at) / Fold change /veh VPS37D (11726825_at) / RFU C10orf10 (11716522_x_at) / Fold change /veh C10orf10 (11716522_x_at) / RFU KIR2DL2 /// KIR2DL4 /// KIR2DL5A /// KIR2DL5B /// KIR2DS1 /// KIR2DS2 /// KIR2DS3 /// KIR2DS4 /// KIR3DL3 /// KIR3DL3 /// KIR3DS1 (11738374_at) / Fold change /veh KIR2DL2 /// KIR2DL4 /// KIR2DL5A /// KIR2DL5B /// KIR2DS1 /// KIR2DS2 /// KIR2DS3 /// KIR2DS4 /// KIR3DL3 /// KIR3DL3 /// KIR3DS1 (11738374_at) / RFU C1QL1 (11718748_at) / Fold change /veh C1QL1 (11718748_at) / RFU TMPRSS4 (11747572_a_at) / Fold change /veh TMPRSS4 (11747572_a_at) / RFU HAMP (11756126_x_at) / Fold change /veh HAMP (11756126_x_at) / RFU RNFT2 (11725882_a_at) / Fold change /veh RNFT2 (11725882_a_at) / RFU NR4A2 (11747474_a_at) / Fold change /veh NR4A2 (11747474_a_at) / RFU ABCC12 (11746883_a_at) / Fold change /veh ABCC12 (11746883_a_at) / RFU TMEM136 (11760407_x_at) / Fold change /veh TMEM136 (11760407_x_at) / RFU CLDN22 /// WWC2 (11732394_at) / Fold change /veh CLDN22 /// WWC2 (11732394_at) / RFU HLA-DPB1 (11760878_x_at) / Fold change /veh HLA-DPB1 (11760878_x_at) / RFU SPINT1 (11716480_a_at) / Fold change /veh SPINT1 (11716480_a_at) / RFU GAP43 (11754022_s_at) / Fold change /veh GAP43 (11754022_s_at) / RFU A4GNT (11735810_at) / Fold change /veh A4GNT (11735810_at) / RFU PRB3 (11715151_x_at) / Fold change /veh PRB3 (11715151_x_at) / RFU TUBB4B (11761932_at) / Fold change /veh TUBB4B (11761932_at) / RFU CAPN14 (11732068_a_at) / Fold change /veh CAPN14 (11732068_a_at) / RFU TMCC2 (11721928_a_at) / Fold change /veh TMCC2 (11721928_a_at) / RFU IRGQ (11745062_a_at) / Fold change /veh IRGQ (11745062_a_at) / RFU FAM174B (11720279_a_at) / Fold change /veh FAM174B (11720279_a_at) / RFU TMPRSS4 (11748680_a_at) / Fold change /veh TMPRSS4 (11748680_a_at) / RFU FAM212B (11763350_a_at) / Fold change /veh FAM212B (11763350_a_at) / RFU PLEKHG5 (11743358_a_at) / Fold change /veh PLEKHG5 (11743358_a_at) / RFU ZSCAN30 (11745921_a_at) / Fold change /veh ZSCAN30 (11745921_a_at) / RFU CMKLR1 (11741424_a_at) / Fold change /veh CMKLR1 (11741424_a_at) / RFU LOC101060620 /// MAPK8IP1 (11723275_at) / Fold change /veh LOC101060620 /// MAPK8IP1 (11723275_at) / RFU SPTSSB (11747773_x_at) / Fold change /veh SPTSSB (11747773_x_at) / RFU PRSS12 (11739890_at) / Fold change /veh PRSS12 (11739890_at) / RFU BIN1 (11741810_x_at) / Fold change /veh BIN1 (11741810_x_at) / RFU WNT11 (11732464_a_at) / Fold change /veh WNT11 (11732464_a_at) / RFU C10orf10 (11716521_a_at) / Fold change /veh C10orf10 (11716521_a_at) / RFU C5orf56 (11738089_at) / Fold change /veh C5orf56 (11738089_at) / RFU CYB561 (11721691_x_at) / Fold change /veh CYB561 (11721691_x_at) / RFU ANKRD19P (11752326_a_at) / Fold change /veh ANKRD19P (11752326_a_at) / RFU OR2T12 /// OR2T33 /// OR2T8 (11738714_s_at) / Fold change /veh OR2T12 /// OR2T33 /// OR2T8 (11738714_s_at) / RFU VCAN (11748164_a_at) / Fold change /veh VCAN (11748164_a_at) / RFU JSRP1 (11732532_at) / Fold change /veh JSRP1 (11732532_at) / RFU KRTAP10-11 (11738290_x_at) / Fold change /veh KRTAP10-11 (11738290_x_at) / RFU MYO3A (11730013_a_at) / Fold change /veh MYO3A (11730013_a_at) / RFU EBF3 (11725865_a_at) / Fold change /veh EBF3 (11725865_a_at) / RFU CAMK2N1 (11719241_x_at) / Fold change /veh CAMK2N1 (11719241_x_at) / RFU C5orf56 (11738088_a_at) / Fold change /veh C5orf56 (11738088_a_at) / RFU OLFML3 (11715873_a_at) / Fold change /veh OLFML3 (11715873_a_at) / RFU LOC100653217 /// NTM (11731650_a_at) / Fold change /veh LOC100653217 /// NTM (11731650_a_at) / RFU MAPK11 (11762145_a_at) / Fold change /veh MAPK11 (11762145_a_at) / RFU FIZ1 (11724087_x_at) / Fold change /veh FIZ1 (11724087_x_at) / RFU OASL (11726364_x_at) / Fold change /veh OASL (11726364_x_at) / RFU SOX15 (11748057_x_at) / Fold change /veh SOX15 (11748057_x_at) / RFU CD79A (11719716_a_at) / Fold change /veh CD79A (11719716_a_at) / RFU HIST1H1D (11736915_at) / Fold change /veh HIST1H1D (11736915_at) / RFU CASKIN2 (11723855_a_at) / Fold change /veh CASKIN2 (11723855_a_at) / RFU LOC730098 (11760151_x_at) / Fold change /veh LOC730098 (11760151_x_at) / RFU OR4N2 (11742367_at) / Fold change /veh OR4N2 (11742367_at) / RFU PRRT2 (11749266_a_at) / Fold change /veh PRRT2 (11749266_a_at) / RFU SNX32 (11753110_a_at) / Fold change /veh SNX32 (11753110_a_at) / RFU CDHR5 (11726645_a_at) / Fold change /veh CDHR5 (11726645_a_at) / RFU RCAN1 (11760418_a_at) / Fold change /veh RCAN1 (11760418_a_at) / RFU FAM167A (11723789_a_at) / Fold change /veh FAM167A (11723789_a_at) / RFU FAM26E (11764081_at) / Fold change /veh FAM26E (11764081_at) / RFU ISYNA1 (11749810_s_at) / Fold change /veh ISYNA1 (11749810_s_at) / RFU ACY1 (11761880_at) / Fold change /veh ACY1 (11761880_at) / RFU 11764098_at / Fold change /veh 11764098_at / RFU SAMD14 (11745864_x_at) / Fold change /veh SAMD14 (11745864_x_at) / RFU NPB (11741838_a_at) / Fold change /veh NPB (11741838_a_at) / RFU TMPRSS6 (11731388_a_at) / Fold change /veh TMPRSS6 (11731388_a_at) / RFU KRTAP10-2 (11738614_at) / Fold change /veh KRTAP10-2 (11738614_at) / RFU ARHGAP8 /// PRR5-ARHGAP8 (11727945_x_at) / Fold change /veh ARHGAP8 /// PRR5-ARHGAP8 (11727945_x_at) / RFU KRTAP5-7 /// NADSYN1 (11734609_at) / Fold change /veh KRTAP5-7 /// NADSYN1 (11734609_at) / RFU RASL12 (11751679_a_at) / Fold change /veh RASL12 (11751679_a_at) / RFU CDKN2B (11736163_a_at) / Fold change /veh CDKN2B (11736163_a_at) / RFU PRF1 (11729649_at) / Fold change /veh PRF1 (11729649_at) / RFU, ZNF638 /// ZNF638-IT1 / Fold change vs veh, ZNF638 /// ZNF638-IT1 / RFU, PANK3 / Fold change vs veh, PANK3 / RFU, SH3YL1 / Fold change vs veh, SH3YL1 / RFU, ZEB2 / Fold change vs veh, ZEB2 / RFU, NRIP1 / Fold change vs veh, NRIP1 / RFU, PTTG1IP / Fold change vs veh, PTTG1IP / RFU, CAPN2 / Fold change vs veh, CAPN2 / RFU, MED14 / Fold change vs veh, MED14 / RFU, SNORA58 / Fold change vs veh, SNORA58 / RFU, C1orf63 / Fold change vs veh, C1orf63 / RFU, LRRFIP1 / Fold change vs veh, LRRFIP1 / RFU, NDUFAF7 / Fold change vs veh, NDUFAF7 / RFU, SLC12A2 / Fold change vs veh, SLC12A2 / RFU, IBTK / Fold change vs veh, IBTK / RFU, ESF1 / Fold change vs veh, ESF1 / Fold change vs veh, TMEM50B / RFU, TAOK1 / Fold change vs veh, TAOK1 / RFU, ACBD3 / Fold change vs veh, ACBD3 / RFU, TMA16 / Fold change vs veh, TMA16 / RFU, RWDD3 / Fold change vs veh, RWDD3 / RFU, BCAT1 / Fold change vs veh, BCAT1 / RFU, EDEM3 / Fold change vs veh, EDEM3 / RFU, TMEM33 / Fold change vs veh, TMEM33 / RFU, WDR75 / Fold change vs veh, WDR75 / RFU, AHCTF1 / Fold change vs veh, AHCTF1 / RFU, TFRC / Fold change vs veh, TFRC / RFU, ZDHHC17 / Fold change vs veh, ZDHHC17 / RFU, NOM1 / Fold change vs veh, NOM1 / RFU, ARL8B / Fold change vs veh, ARL8B / RFU, ZBTB11 / Fold change vs veh, ZBTB11 / RFU, TAMM41 / Fold change vs veh, TAMM41 / RFU, KIAA1704 /// LOC100996395 / Fold change vs veh, KIAA1704 /// LOC100996395 / RFU, ING1 / Fold change vs veh, ING1 / RFU, TRMT61B / Fold change vs veh, TRMT61B / RFU, FUBP3 / Fold change vs veh, FUBP3 / RFU, TP53 / Fold change vs veh, TP53 / RFU, TNKS2 / Fold change vs veh, TNKS2 / RFU, ZFP14 / Fold change vs veh, ZFP14 / RFU, ACTR2 / Fold change vs veh, ACTR2 / RFU, PPP3R1 / Fold change vs veh, PPP3R1 / RFU, PIK3R1 / Fold change vs veh, PIK3R1 / RFU, HNRNPA1 / Fold change vs veh, HNRNPA1 / RFU, RNF170 / Fold change vs veh, RNF170 / RFU, ZNF28 / Fold change vs veh, ZNF28 / RFU, RNGTT / Fold change vs veh, RNGTT / RFU, OGT / Fold change vs veh, OGT / RFU, BRD1 / Fold change vs veh, BRD1 / RFU, MARS / Fold change vs veh, MARS / RFU, ZNF655 / Fold change vs veh, ZNF655 / RFU, FAHD1 / Fold change vs veh, FAHD1 / RFU, BDP1 / Fold change vs veh, BDP1 / RFU, LRRCC1 / Fold change vs veh, LRRCC1 / RFU, ARID1A / Fold change vs veh, ARID1A / RFU, ZNF146 / Fold change vs veh, ZNF146 / RFU, ZNF330 / Fold change vs veh, ZNF330 / RFU, GPN3 / Fold change vs veh, GPN3 / RFU, C9orf123 / Fold change vs veh, C9orf123 / RFU, N4BP2L2 / Fold change vs veh, N4BP2L2 / RFU, ARFIP1 / Fold change vs veh, ARFIP1 / RFU, FAM179B / Fold change vs veh, FAM179B / RFU, BCL10 / Fold change vs veh, BCL10 / RFU, UHRF1BP1L / Fold change vs veh, UHRF1BP1L / RFU, BET1 / Fold change vs veh, BET1 / RFU, CNOT2 / Fold change vs veh, CNOT2 / RFU, ZNF268 / Fold change vs veh, ZNF268 / Fold change vs veh, ZNF507 / RFU, DGCR2 / Fold change vs veh, DGCR2 / RFU, WDSUB1 / Fold change vs veh, WDSUB1 / Fold change vs veh, HSP90B1 /// MIR3652 / RFU, ADSS / Fold change vs veh, ADSS / RFU, GK / Fold change vs veh, GK / RFU, ZNF148 / Fold change vs veh, ZNF148 / RFU, TAF9 / Fold change vs veh, TAF9 / RFU, SLC1A5 / Fold change vs veh, SLC1A5 / RFU, SLMO2 / Fold change vs veh, SLMO2 / RFU, ABCC4 / Fold change vs veh, ABCC4 / RFU, LOC101060439 /// RAP1B / Fold change vs veh, LOC101060439 /// RAP1B / RFU, RFX7 / Fold change vs veh, RFX7 / RFU, GTPBP10 / Fold change vs veh, GTPBP10 / RFU, CNEP1R1 / Fold change vs veh, CNEP1R1 / RFU, BIVM-ERCC5 /// ERCC5 / Fold change vs veh, BIVM-ERCC5 /// ERCC5 / RFU, ILF3 / Fold change vs veh, ILF3 / RFU 11762660_at / Fold change /veh 11762660_at / RFU VCAN (11757783_s_at) / Fold change /veh VCAN (11757783_s_at) / RFU DDX43 (11728927_at) / Fold change /veh DDX43 (11728927_at) / RFU KRT8 (11758188_x_at) / Fold change /veh KRT8 (11758188_x_at) / RFU NKD1 (11759106_at) / Fold change /veh NKD1 (11759106_at) / RFU SRD5A1 (11742802_a_at) / Fold change /veh SRD5A1 (11742802_a_at) / RFU TPSAB1 /// TPSB2 (11721975_s_at) / Fold change /veh TPSAB1 /// TPSB2 (11721975_s_at) / RFU GSTM3 (11746129_a_at) / Fold change /veh GSTM3 (11746129_a_at) / RFU IL23R (11737362_x_at) / Fold change /veh IL23R (11737362_x_at) / RFU TMEM51 (11727254_a_at) / Fold change /veh TMEM51 (11727254_a_at) / RFU PIWIL2 (11732686_x_at) / Fold change /veh PIWIL2 (11732686_x_at) / RFU ORM1 (11744905_x_at) / Fold change /veh ORM1 (11744905_x_at) / RFU CCDC152 (11743942_at) / Fold change /veh CCDC152 (11743942_at) / RFU ECM1 (11717891_a_at) / Fold change /veh ECM1 (11717891_a_at) / RFU IL23R (11748794_a_at) / Fold change /veh IL23R (11748794_a_at) / RFU TNFAIP8L3 (11732012_x_at) / Fold change /veh TNFAIP8L3 (11732012_x_at) / RFU MBOAT4 (11741988_at) / Fold change /veh MBOAT4 (11741988_at) / RFU 11764193_at / Fold change /veh 11764193_at / RFU TMEM53 (11763286_at) / Fold change /veh TMEM53 (11763286_at) / RFU MAGEB2 (11727129_at) / Fold change /veh MAGEB2 (11727129_at) / RFU TMEM200A (11744735_a_at) / Fold change /veh TMEM200A (11744735_a_at) / RFU CCDC152 (11751479_a_at) / Fold change /veh CCDC152 (11751479_a_at) / RFU FAM211A (11726209_a_at) / Fold change /veh FAM211A (11726209_a_at) / RFU RGS16 (11746705_a_at) / Fold change /veh RGS16 (11746705_a_at) / RFU VCAN (11755009_s_at) / Fold change /veh VCAN (11755009_s_at) / RFU RHOB (11743442_s_at) / Fold change /veh RHOB (11743442_s_at) / RFU RGS16 (11720943_a_at) / Fold change /veh RGS16 (11720943_a_at) / RFU RGS16 (11720944_at) / Fold change /veh RGS16 (11720944_at) / RFU, VPS4B / Fold change vs veh, VPS4B / RFU, CREB1 / Fold change vs veh, CREB1 / RFU, DNAJC13 / Fold change vs veh, DNAJC13 / RFU, GNAQ / Fold change vs veh, GNAQ / RFU, CDK5R1 / Fold change vs veh, CDK5R1 / RFU, ZRANB3 / Fold change vs veh, ZRANB3 / RFU, CUL4A / Fold change vs veh, CUL4A / RFU, CCNY / Fold change vs veh, CCNY / RFU, UFL1 / Fold change vs veh, UFL1 / RFU, COG3 / Fold change vs veh, COG3 / RFU, DIAPH2 / Fold change vs veh, DIAPH2 / RFU, SKA2 / Fold change vs veh, SKA2 / RFU, AFF3 / Fold change vs veh, AFF3 / RFU, LMF1 / Fold change vs veh, LMF1 / RFU, IPO11 / Fold change vs veh, IPO11 / RFU, DFFB / Fold change vs veh, DFFB / RFU, FOXP1 / Fold change vs veh, FOXP1 / RFU, CARD8 / Fold change vs veh, CARD8 / RFU, STRN3 / Fold change vs veh, STRN3 / RFU, ADK / Fold change vs veh, ADK / RFU, RASSF2 / Fold change vs veh, RASSF2 / RFU, WIPF1 / Fold change vs veh, WIPF1 / RFU, LARP1B / Fold change vs veh, LARP1B / RFU, RASA1 / Fold change vs veh, RASA1 / RFU, RB1 / Fold change vs veh, RB1 / RFU, PPFIA1 / Fold change vs veh, PPFIA1 / RFU, MAT2A / Fold change vs veh, MAT2A / RFU, CCT5 / Fold change vs veh, CCT5 / RFU, WDR92 / Fold change vs veh, WDR92 / RFU, CUX1 / Fold change vs veh, CUX1 / RFU, TTC7A / Fold change vs veh, TTC7A / RFU, TMEM135 / Fold change vs veh, TMEM135 / RFU, DEPTOR / Fold change vs veh, DEPTOR / RFU, CPM / Fold change vs veh, CPM / RFU, DNAJB6 / Fold change vs veh, DNAJB6 / RFU, CACNA2D3 / Fold change vs veh, CACNA2D3 / RFU, DTX4 / Fold change vs veh, DTX4 / RFU, TFCP2 / Fold change vs veh, TFCP2 / RFU, GMCL1 /// GMCL1P1 / Fold change vs veh, GMCL1 /// GMCL1P1 / RFU, AEBP2 / Fold change vs veh, AEBP2 / RFU, SNHG1 /// SNORD22 /// SNORD25 /// SNORD26 /// SNORD27 /// SNORD28 /// SNORD29 /// SNORD31 / Fold change vs veh, SNHG1 /// SNORD22 /// SNORD25 /// SNORD26 /// SNORD27 /// SNORD28 /// SNORD29 /// SNORD31 / Fold change (Aza/veh), C12orf56 (ProbeSet 11735607_a_at) / Fold change (ACY-1035/veh), C12orf56 (ProbeSet 11735607_a_at) / Fold change (Aza/veh), FGFR1OP (ProbeSet 11751329_s_at) / Fold change (ACY-1035/veh), FGFR1OP (ProbeSet 11751329_s_at) / Fold change (Aza/veh), VPS36 (ProbeSet 11739960_a_at) / Fold change (ACY-1035/veh), VPS36 (ProbeSet 11739960_a_at) / RFU SYPL1 (11715823_x_at) / Fold change /veh SYPL1 (11715823_x_at) / RFU IGFBP7 (11715501_s_at) / Fold change /veh IGFBP7 (11715501_s_at) / RFU REEP3 (11722064_at) / Fold change /veh REEP3 (11722064_at) / RFU IGLL1 (11728026_x_at) / Fold change /veh IGLL1 (11728026_x_at): dose or concentration left out as unconfirmed.

On to `Nc1ccc(-c2cccs2)cc1NC(=O)c1ccc2c(c1)cc(C1CC1)n2CCN1CCOCC1` [ACY-1035], for which the “Fold change /veh 11764193_at” value came out at 1.19.
